Laboratory results from patent US10822349B2, “Macrocyclic purines for the treatment of viral infections” (JANSSEN SCIENCES IRELAND UNLIMITED COMPANY, priority 2012, dated 2020).

Key:
Assay type in all cases: cell-based
human TLR7 = target: T1, human TLR7 (Homo sapiens, UniProt Q9NYK1); test: TLR7 cellular reporter assay (HEK293 TLR7-NFκB-luc); conditions: lowest effective concentration; HEK293 transiently transfected with TLR7 and NFκB-luc; 6 hours incubation
T1 construct: expressed in transfected cells; host or cells: HEK293
T1 sequence (Q9NYK1 27-1049): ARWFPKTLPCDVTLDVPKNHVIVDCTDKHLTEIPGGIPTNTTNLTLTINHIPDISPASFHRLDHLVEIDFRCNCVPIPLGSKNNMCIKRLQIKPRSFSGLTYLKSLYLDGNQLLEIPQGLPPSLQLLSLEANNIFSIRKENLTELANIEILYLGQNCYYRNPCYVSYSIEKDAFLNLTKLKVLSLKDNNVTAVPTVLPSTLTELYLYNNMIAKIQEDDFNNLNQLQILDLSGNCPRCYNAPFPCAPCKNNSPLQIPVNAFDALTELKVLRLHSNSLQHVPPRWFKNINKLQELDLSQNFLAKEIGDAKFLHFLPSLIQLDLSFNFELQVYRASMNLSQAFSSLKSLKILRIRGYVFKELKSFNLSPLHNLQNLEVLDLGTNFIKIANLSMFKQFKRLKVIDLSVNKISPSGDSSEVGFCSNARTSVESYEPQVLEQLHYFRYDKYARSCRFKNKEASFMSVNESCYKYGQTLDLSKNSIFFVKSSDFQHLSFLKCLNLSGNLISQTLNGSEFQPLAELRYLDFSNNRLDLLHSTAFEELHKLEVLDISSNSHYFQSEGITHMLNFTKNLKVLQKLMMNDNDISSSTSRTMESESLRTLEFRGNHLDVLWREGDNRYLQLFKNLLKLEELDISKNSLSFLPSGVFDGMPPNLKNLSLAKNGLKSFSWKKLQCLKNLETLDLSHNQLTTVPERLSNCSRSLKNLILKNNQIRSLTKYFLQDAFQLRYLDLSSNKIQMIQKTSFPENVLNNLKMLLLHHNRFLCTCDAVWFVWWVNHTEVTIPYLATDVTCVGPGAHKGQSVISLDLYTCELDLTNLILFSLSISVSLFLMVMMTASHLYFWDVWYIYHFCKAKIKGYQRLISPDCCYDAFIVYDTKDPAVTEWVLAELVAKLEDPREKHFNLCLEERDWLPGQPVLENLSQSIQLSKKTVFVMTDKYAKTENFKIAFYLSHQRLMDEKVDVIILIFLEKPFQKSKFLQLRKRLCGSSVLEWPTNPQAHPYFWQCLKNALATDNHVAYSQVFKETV
How it was run: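 HEK293 cells transiently co-transfected with CMV-TLR7 or TLR8 plasmid plus NFκB-luciferase reporter, 48 h post-transfection, then exposed to compound (added in 4% DMSO) for 6 h at 37 °C. Luciferase read-out; quadruplicate dose-response, LEC defined as concentration giving effect at least two-fold above assay SD.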

[1] = system: interferon production in human PBMC; test: Interferon production in human PBMC, read out on HEK-ISRE-luc reporter cells; conditions: Homo sapiens, PBMC, 24 h, lowest effective concentration, PBMC supernatant after overnight incubation transferred to HEK-ISRE-luc cells, read-out: PBMC HEK-ISRE-luc (LEC; μM)
How it was run: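 Human PBMCs from at least two donors (2×10^5/well, RPMI with 10% human AB serum) incubated overnight with compounds; conditioned supernatant transferred onto HEK-ISRE-luc reporter cells for 24 h. Luciferase read-out reported as LEC, with recombinant interferon alfa-2a as standard.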

human TLR8 = target: T2, human TLR8 (Homo sapiens, UniProt Q9NR97); test: TLR8 cellular reporter assay (HEK293 TLR8-NFκB-luc); conditions: lowest effective concentration; HEK293 transiently transfected with TLR8 and NFκB-luc; 6 hours incubation
T2 construct: expressed in transfected cells; host or cells: HEK293
T2 sequence (Q9NR97 27-1041): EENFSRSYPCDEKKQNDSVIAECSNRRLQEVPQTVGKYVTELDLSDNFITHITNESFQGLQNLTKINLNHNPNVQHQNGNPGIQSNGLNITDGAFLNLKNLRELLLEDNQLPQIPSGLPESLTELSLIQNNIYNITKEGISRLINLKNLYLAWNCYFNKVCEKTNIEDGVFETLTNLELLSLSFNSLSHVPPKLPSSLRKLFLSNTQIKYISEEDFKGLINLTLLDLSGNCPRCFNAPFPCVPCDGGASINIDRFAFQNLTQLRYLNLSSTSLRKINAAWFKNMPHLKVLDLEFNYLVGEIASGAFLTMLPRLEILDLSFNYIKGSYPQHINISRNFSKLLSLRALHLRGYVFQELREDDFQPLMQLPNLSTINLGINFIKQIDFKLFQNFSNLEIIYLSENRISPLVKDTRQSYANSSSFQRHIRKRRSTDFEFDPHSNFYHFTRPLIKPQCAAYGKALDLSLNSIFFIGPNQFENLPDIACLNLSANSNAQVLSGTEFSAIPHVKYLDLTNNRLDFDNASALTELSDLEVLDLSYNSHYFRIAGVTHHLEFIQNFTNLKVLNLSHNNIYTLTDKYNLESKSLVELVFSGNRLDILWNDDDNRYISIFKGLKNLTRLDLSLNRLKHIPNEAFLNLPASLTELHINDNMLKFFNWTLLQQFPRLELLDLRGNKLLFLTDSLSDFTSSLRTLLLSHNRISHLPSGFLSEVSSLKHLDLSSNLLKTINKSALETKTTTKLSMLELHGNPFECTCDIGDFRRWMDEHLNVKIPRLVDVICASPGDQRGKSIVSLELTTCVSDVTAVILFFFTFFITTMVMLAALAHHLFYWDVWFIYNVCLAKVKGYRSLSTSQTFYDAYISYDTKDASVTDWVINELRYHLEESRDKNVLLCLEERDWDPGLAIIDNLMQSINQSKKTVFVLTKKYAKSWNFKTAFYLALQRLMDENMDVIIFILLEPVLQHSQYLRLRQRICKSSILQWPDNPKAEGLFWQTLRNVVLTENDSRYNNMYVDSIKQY
Experimental: The ability of compounds to activate human TLR7 and TLR8 was assessed in a cellular reporter assay using HEK293 cells transiently transfected with a TLR7 or TLR8 expression vector and NFκB-luc reporter construct. Briefly, HEK293 cells were grown in culture medium (DMEM supplemented with 10% FCS and 2 mM Glutamine). For transfection of cells in 10 cm dishes, cells were detached with Trypsin-EDTA, transfected with a mix of CMV-TLR7 or TLR8 plasmid (750 ng), NFκB-luc plasmid (375 ng) and a transfection reagent and incubated 48 hours at 37° C. in a humidified 5% CO2 atmosphere. Transfected cells were then detached with Trypsin-EDTA, washed in PBS and resuspended in medium to a density of 1.67×10^5 cells/mL. Thirty microliters of cells were then dispensed into each well in 384-well plates, where 10 μL of compound in 4% DMSO was already present. Following 6 hours incubation at 37° C., 5% CO2, the luciferase activity was determined by adding 15 μl of Steady Lite Plus substrate (Perkin Elmer) to each well and readout performed on a ViewLux ultraHTS microplate imager (Perkin Elmer). Dose response curves were generated from measurements performed in quadruplicates. Lowest effective concentrations (LEC) values, defined as the concentration that induces an effect which is at least two fold above the standard deviation of the assay, were determined for each compound.

HEK293 TLR7-NFκB-luc (LEC; μM) (human TLR7)	LEC on HEK293 TLR8-NFκB-luc (human TLR8)	SMILES	minimal effective concentration [1]
1.16 µM	20.46 µM	Nc1nc2nc3c1nc(O)n3Cc1ncccc1OCC/C=C\CO2 [Compound 39]	0.22 µM
1.3 µM	> 19.49 µM	Nc1nc2nc3c1nc(O)n3Cc1ncccc1OCC/C=C/CO2 [Compound 40]	0.15 µM
1.93 µM	11.16 µM	Nc1nc2nc3c1nc(O)n3Cc1ncccc1/C=C\CCCO2 [Compound 41]	0.48 µM
3.43 µM	5.48 µM	Nc1nc2nc3c1nc(O)n3Cc1ccccc1C/C=C/CCO2 [Compound 47]	2.34 µM
0.0068 µM	0.27 µM	COc1cc2cc(c1)OC/C=C/COc1nc(N)c3nc(O)n(c3n1)C2 [Compound 75]	0.0026 µM
